Here are results for 29 compounds from US10696693B2, “Fused imidazole derivatives as TGF-beta inhibitors” (Rigel Pharmaceuticals, Inc., priority 2014, dated 2020).

The test system of one experiment is TGF-β. The experiment can be described thus: AlphaScreen SureFire p-SMAD3 (Ser423/425) assay, TGF-β-stimulated cells. The format is cell-based. To be noted: Mus musculus. In a few lines: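 The p-SMAD-3 (Ser423/425) SureFire assay measured phosphorylation of endogenous SMAD-3 in cell lysates. Cells were plated overnight in collagen-coated plates, exposed to three-fold serially diluted compounds for about 10 minutes, then stimulated with TGFβ. Lysates (5 μL) received acceptor bead mix for 2 hours, then donor beads for 1½ hours before AlphaScreen reading.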
(In general: In Alpha technology, singlet oxygen from a donor bead excites a nearby acceptor bead.)

The test system of the next experiment is GDF8. Put plainly: AlphaScreen SureFire p-SMAD3 (Ser423/425) assay, GDF8-stimulated cells. To be noted: Mus musculus. It counts as cell-based. The essentials:
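Lysate (5 μL) went into 384-well shallow plates with 5 μL of Reaction Buffer, Activation Buffer and AlphaScreen Acceptor bead mix. Plates were sealed, kept dark and shaken for 2 hours at room temperature. Donor beads in dilution buffer (2 μL) were added for another 1½ hours, and p-SMAD3 signal was read on a Synergy-4 or Enspire reader.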

The mark [1] stands for this setting: p-SMAD3 (Ser423/425) AlphaScreen in cell lysate, MPC-11, TGF-β stimulation, read-out: TGF-β: inhibition of TGF-β signaling, TGF-β pSMAD (MPC-11).
Where [2] appears, read: MPC-11, p-SMAD3 (Ser423/425) AlphaScreen in cell lysate, MPC11, GDF8 stimulation, read-out: GDF8: inhibition of GDF8 signaling, GDF pSMAD (MPC11).
Where [3] appears, read: MPC-11, read-out: TGF-β: inhibition of TGF-β signaling, TGF-β pSMAD (MPC-11), p-SMAD3 (Ser423/425) AlphaScreen in cell lysate, TGF-β stimulation.
Setting [4] is: MPC-11, read-out: GDF8: inhibition of GDF8 signaling, GDF pSMAD (MPC11), p-SMAD3 (Ser423/425) AlphaScreen in cell lysate, GDF8 stimulation.

Where two headings read alike, the source gives them in different places.

For `Fc1ccc(Cl)cc1-c1nc2n(c1-c1ccc3ncsc3c1)CCC2` [Compound 339, 6-(2-(5-chloro-2-fluoropheny)-6,7-dihydro-5H-pyrrolo[1,2-a]imidazol-3-yl)benzo[d]thiazole], the IC50 in the experiment on TGF-β (setting [1]) and in the experiment on GDF8 (setting [2]) was less than 50 nM each time.

For `Cc1ccc(Cl)cc1-c1nc2n(c1-c1ccc3ncccc3c1)CCC2` [Compound 340, 6-(2-(5-chloro-2-methylpheny)-6,7-dihydro-5H-pyrrolo[1,2-a]imidazol-3-yl)quinoline], the IC50 in the experiment on TGF-β (setting [1]) and in the experiment with GDF8 (setting [2]) was 100 to 1000 nM throughout.

Turning to `Cc1ccc(-c2ccc3nccnc3c2)cc1-c1nc2n(c1-c1ccc3nccnc3c1)CCC2` [Compound 341, 6-(4-methyl-3-(3-(quinoxalin-6-yl)-6,7-dihydro-5H-pyrrolo[1,2-a]imidazol-2-yl)phenyl)quinoxaline], the IC50 in the experiment with TGF-β (setting [3]) and with GDF8 (setting [4]) was more than 1000 nM each time.

As for `Cc1ccc(Cl)cc1-c1nc2n(c1-c1ccc3nccnc3c1)CCC2` [Compound 342, 6-(2-(5-chloro-2-methylpheny)-6,7-dihydro-5H-pyrrolo[1,2-a]imidazol-3-yl)quinoxaline], the IC50 with TGF-β (setting [1]) and with GDF8 (setting [2]) was 100 to 1000 nM in each case.

As to `Clc1ccc(Cl)c(-c2nc3n(c2-c2ccc4ncccc4c2)CCC3)c1` [Compound 343, 6-(2-(2,5-dichlorophenyl)-6,7-dihydro-5H-pyrrolo[1,2-a]imidazol-3-yl)quinoline], the IC50 with TGF-β (setting [3]) and in the experiment on GDF8 (setting [4]) was 100 to 1000 nM throughout.

In the case of `Nc1ncnc2ccc(-c3c(-c4cc(F)cc(F)c4F)nc4n3CCC4)cc12` [Compound 344, 6-(2-(2,3,5-trifluorophenyl)-6,7-dihydro-5H-pyrrolo[1,2-a]imidazol-3-yl)quinazolin-4-amine], the IC50 in the experiment with TGF-β (setting [1]) and in the experiment on GDF8 (setting [2]) was 100 to 1000 nM each time.

With `Nc1ncnc2ccc(-c3c(-c4cc(F)c(F)cc4F)nc4n3CCC4)cc12` [Compound 345, 6-(2-(2,4,5-trifluorophenyl)-6,7-dihydro-5H-pyrrolo[1,2-a]imidazol-3-yl)quinazolin-4-amine], the results for the IC50 in the experiment with TGF-β (setting [1]) and in the experiment on GDF8 (setting [2]) were 50 to 100 nM and less than 50 nM, respectively.

In the case of `Nc1ncnc2ccc(-c3c(-c4cc(Cl)ccc4F)nc4n3CCC4)cc12` [Compound 346, 6-(2-(5-chloro-2-fluorophenyl)-6,7-dihydro-5H-pyrrolo[1,2-a]imidazol-3-yl)quinazolin-4-amine], the IC50 in the experiment with TGF-β (setting [1]) and in the experiment with GDF8 (setting [2]) was less than 50 nM throughout.

Consider `Nc1ncnc2ccc(-c3c(-c4ccc(F)c(Cl)c4)nc4n3CCC4)cc12` [Compound 347, 6-(2-(3-chloro-4-fluorophenyl)-6,7-dihydro-5H-pyrrolo[1,2-a]imidazol-3-yl)quinazolin-4-amine], for which the IC50 in the experiment with TGF-β (setting [1]) and with GDF8 (setting [2]) was 50 to 100 nM throughout.

On to `Clc1ccc(Cl)c(-c2nc3n(c2-c2ccc4nccnc4c2)CCC3)c1` [Compound 348, 6-(2-(2,5-dichloropheny)-6,7-dihydro-5H-pyrrolo[1,2-a]imidazol-3-yl)quinoxaline], for which the results for the IC50 in the experiment with TGF-β (setting [1]) and with GDF8 (setting [2]) were 50 to 100 nM and less than 50 nM, respectively.

Consider `Clc1ccc(Cl)c(-c2nc3n(c2-c2ccc4ncsc4c2)CCC3)c1` [Compound 349, 6-(2-(2,5-dichlorophenyl)-6,7-dihydro-5H-pyrrolo[1,2-a]imidazol-3-yl)benzo[d]thiazole], for which the IC50 was 50 to 100 nM with TGF-β (setting [3]) and less than 50 nM in the experiment with GDF8 (setting [4]).

On to `Cc1ccc(Cl)cc1-c1nc2n(c1-c1ccc3ncsc3c1)CCC2` [Compound 350, 6-(2-(5-chloro-2-methylphenyl)-6,7-dihydro-5H-pyrrolo[1,2-a]imidazol-3-yl)benzo[d]thiazole], for which the IC50 lay within 100 to 1000 nM in the experiment with TGF-β (setting [3]) and 50 to 100 nM with GDF8 (setting [4]).

`COc1ccc(-c2nc3n(c2-c2ccc4nccnc4c2)CCC3)cc1` [Compound 351, 6-(2-(4-methoxyphenyl)-6,7-dihydro-5H-pyrrolo[1,2-a]imidazol-3-yl)quinoxaline]: the IC50 in the experiment with TGF-β (setting [3]) and with GDF8 (setting [4]) was more than 1000 nM in each case.

Turning to `COc1ccc(-c2nc3n(c2-c2ccc4ncccc4c2)CCC3)cc1` [Compound 352, 6-(2-(4-methoxyphenyl)-6,7-dihydro-5H-pyrrolo[1,2-a]imidazol-3-yl)quinoline], the IC50 in the experiment on TGF-β (setting [3]) and in the experiment on GDF8 (setting [4]) was more than 1000 nM each time.

In the case of `COCCOc1cnc2ccc(-c3c(-c4cc(F)c(F)cc4F)nc4n3CCC4)cc2n1` [Compound 353, 2-(2-methoxyethoxy)-7-(2-(2,4,5-trifluorophenyl)-6,7-dihydro-5H-pyrrolo[1,2-a]imidazol-3-yl)quinoxaline], the IC50 in the experiment on TGF-β (setting [1]) and in the experiment on GDF8 (setting [2]) was 100 to 1000 nM each time.

In the case of `COCCOc1cnc2ccc(-c3c(-c4cc(Cl)ccc4F)nc4n3CCC4)cc2n1` [Compound 354, 7-(2-(5-chloro-2-fluorophenyl)-6,7-dihydro-5H-pyrrolo[1,2-a]imidazol-3-yl)-2-(2-methoxyethoxy)quinoxaline], the IC50 is less than 50 nM in the experiment with TGF-β (setting [3]) and 50 to 100 nM in the experiment with GDF8 (setting [4]).

Turning to `COCCOc1cnc2ccc(-c3c(-c4ccc(F)c(Cl)c4)nc4n3CCC4)cc2n1` [Compound 355, 7-(2-(3-chloro-4-fluorophenyl)-6,7-dihydro-5H-pyrrolo[1,2-a]imidazol-3-yl)-2-(2-methoxyethoxy)quinoxaline], the IC50 in the experiment on TGF-β (setting [3]) and in the experiment with GDF8 (setting [4]) was 100 to 1000 nM each time.

In the case of `Cc1ccc(F)c(-c2nc3n(c2-c2ccc4ncccc4c2)CCC3)c1` [Compound 356, 6-(2-(2-fluoro-5-methylphenyl)-6,7-dihydro-5H-pyrrolo[1,2-a]imidazol-3-yl)quinoline], the IC50 in the experiment on TGF-β (setting [1]) is 100 to 1000 nM; in the experiment with GDF8 (setting [2]) it was 50 to 100 nM.

In the case of `Cc1ccc(F)c(-c2nc3n(c2-c2ccc4nccnc4c2)CCC3)c1` [Compound 357, 6-(2-(2-fluoro-5-methylphenyl)-6,7-dihydro-5H-pyrrolo[1,2-a]imidazol-3-yl)quinoxaline], the IC50 in the experiment on TGF-β (setting [1]) and in the experiment with GDF8 (setting [2]) was less than 50 nM throughout.

As for `COCCOc1cnc2ccc(-c3c(-c4cc(C)ccc4F)nc4n3CCC4)cc2n1` [Compound 358, 7-(2-(2-fluoro-5-methylphenyl)-6,7-dihydro-5H-pyrrolo[1,2-a]imidazol-3-yl)-2-(2-methoxyethoxy)quinoxaline], the IC50 in the experiment with TGF-β (setting [3]) and with GDF8 (setting [4]) was 100 to 1000 nM each time.

As for `Fc1cc(F)c(F)c(-c2nc3n(c2-c2ccc4ncc(-n5ccnc5)nc4c2)CCC3)c1` [Compound 359, 2-(1H-imidazol-1-yl)-7-(2-(2,3,5-trifluorophenyl)-6,7-dihydro-5H-pyrrolo[1,2-a]imidazol-3-yl)quinoxaline], the IC50 with TGF-β (setting [3]) is 100 to 1000 nM; in the experiment with GDF8 (setting [4]), 50 to 100 nM.

Regarding `Fc1ccc(Cl)cc1-c1nc2n(c1-c1ccc3ncc(-n4ccnc4)nc3c1)CCC2` [Compound 360, 7-(2-(5-chloro-2-fluorophenyl)-6,7-dihydro-5H-pyrrolo[1,2-a]imidazol-3-yl)-2-(1H-imidazol-1-yl)quinoxaline], the IC50 in the experiment on TGF-β (setting [3]) and with GDF8 (setting [4]) was less than 50 nM each time.

Consider `CN(C)CCOc1cnc2ccc(-c3c(-c4cc(F)cc(F)c4F)nc4n3CCC4)cc2n1` [Compound 361, N,N-dimethyl-2-((7-(2-(2,3,5-trifluorophenyl)-6,7-dihydro-5H-pyrrolo[1,2-a]imidazol-3-yl)quinoxalin-2-yl)oxy)ethan-1-amine], for which the IC50 with TGF-β (setting [3]) and in the experiment with GDF8 (setting [4]) was more than 1000 nM each time.

For the compound `CN(C)CCOc1cnc2ccc(-c3c(-c4cc(F)c(F)cc4F)nc4n3CCC4)cc2n1` [Compound 362, N,N-dimethyl-2-((7-(2-(2,4,5-trifluorophenyl)-6,7-dihydro-5H-pyrrolo[1,2-a]imidazol-3-yl)quinoxalin-2-yl)oxy)ethan-1-amine], the IC50 in the experiment on TGF-β (setting [3]) and with GDF8 (setting [4]) was 100 to 1000 nM each time.

As to `CN(C)CCOc1cnc2ccc(-c3c(-c4cc(Cl)ccc4F)nc4n3CCC4)cc2n1` [Compound 363, 2-((7-(2-(5-chloro-2-fluorophenyl)-6,7-dihydro-5H-pyrrolo[1,2-a]imidazol-3-yl)quinoxalin-2-yl)oxy)-N,N-dimethylethan-1-amine], the IC50 in the experiment on TGF-β (setting [1]) and in the experiment on GDF8 (setting [2]) was less than 50 nM throughout.

As for `c1ccc(C2=C(c3ccc4[nH]ncc4c3)C3CCCC3=N2)nc1` (stereo not shown) [Compound 365, 5-(2-(pyridin-2-yl)-3a,4,5,6-tetrahydrocyclopenta[b]pyrrol-3-yl)-1H-indazole], the IC50 in the experiment with TGF-β (setting [1]) and in the experiment on GDF8 (setting [2]) was less than 50 nM throughout.

`c1ccc(C2=C(c3ccc4cn[nH]c4c3)C3CCCC3=N2)nc1` (stereo not shown) [Compound 366, 6-(2-(pyridin-2-yl)-3a,4,5,6-tetrahydrocyclopenta[b]pyrrol-3-yl)-1H-indazole]: the IC50 was 50 to 100 nM in the experiment on TGF-β (setting [1]) and less than 50 nM with GDF8 (setting [2]).

For `c1ccc(-c2nc3n(c2-c2ccc4ncsc4c2)CCC3)nc1` [Compound 367, 6-(2-(pyridin-2-yl)-6,7-dihydro-5H-pyrrolo[1,2-a]imidazol-3-yl)benzo[d]thiazole], the IC50 with TGF-β (setting [1]) and in the experiment with GDF8 (setting [2]) was less than 50 nM throughout.

On to `c1ccc(-c2nc3n(c2-c2ccc4nccnc4c2)CCC3)nc1` [Compound 368, 6-(2-(pyridin-2-yl)-6,7-dihydro-5H-pyrrolo[1,2-a]imidazol-3-yl)quinoxaline], for which the IC50 in the experiment on TGF-β (setting [1]) and with GDF8 (setting [2]) was 50 to 100 nM throughout.
